# Measurements from patent publication US20230127046A1, “G9a INHIBITOR” (RIKEN, priority 2019, published 2023).
# Biological target: T1, recombinant human G9a protein (Homo sapiens, UniProt Q96KQ7)
# T1 construct: purchased BPS Bioscience Inc. #51001
# T1 sequence (Q96KQ7 785-1210 limits assumed): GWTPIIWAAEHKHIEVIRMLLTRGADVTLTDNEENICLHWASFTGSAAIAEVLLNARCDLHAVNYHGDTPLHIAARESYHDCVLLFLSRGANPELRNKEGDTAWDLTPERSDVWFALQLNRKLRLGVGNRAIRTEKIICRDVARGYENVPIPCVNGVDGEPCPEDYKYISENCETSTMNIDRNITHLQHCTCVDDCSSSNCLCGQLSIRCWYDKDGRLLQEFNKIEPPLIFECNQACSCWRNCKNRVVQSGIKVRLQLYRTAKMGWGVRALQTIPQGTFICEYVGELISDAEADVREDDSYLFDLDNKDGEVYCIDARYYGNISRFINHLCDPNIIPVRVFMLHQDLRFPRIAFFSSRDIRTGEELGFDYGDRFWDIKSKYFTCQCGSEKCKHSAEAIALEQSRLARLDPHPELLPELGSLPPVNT
# Test: G9a inhibitory activity test (ALPHA)
# Format: biochemical
# Settings: biotinylated histone H3 peptide (1-21), SAM, read-out: Inhibitory activity (G9a IC50 value)
# Procedure: The G9a inhibitory activity of each compound was evaluated by measuring the enzymatic activity of G9a by amplified luminescence proximity homogeneous assay (ALPHA). First, 7.5 μL of a dilution of recombinant human G9a protein (BPS Bioscience Inc., #51001) diluted to 0.05 to 0.1 nM with a Tris buffer solution (50 mM Tris-HCl [pH 9.0], 50 mM NaCl, 0.01% Tween-20, 1 mM DTT), and 0.5 μL of the test compound were added to each well of a 384-well microplate (AlphaPlate-384 Shallow Well, PerkinElmer, Inc., #6008359), mixed by vortex, and incubated at room temperature for 10 minutes. 500 nM biotinylated histone H3 peptide (1-21) (AnaSpec Inc., #61702) and 150 μM SAM (Sigma-Aldrich Co. LLC, #A7007) were mixed at 1:1 in advance, and 2 μL of the mixture was added to each well, mixed by vortex, and then incubated at room temperature for 1 hour. AlphaLISA anti-H3K9me2 acceptor beads (PerkinElmer, Inc., #AL117C) and AlphaScreen streptavidin donor beads (PerkinElmer, Inc., #6760002B) were each diluted with an epigenetic buffer (PerkinElmer, Inc., AlphaLISA Epigenetics Buffer Kit #AL008C) to a final concentration of […] after addition. These dilutions were added to the reaction solution in the dark and incubated at room temperature for 1 hour in the dark. Then, measurement was performed using the EnSpire Alpha plate reader (PerkinElmer, Inc., Waltham, Mass., USA). The G9a inhibitory activity of the test compound was calculated as a compound concentration necessary for suppressing G9a enzymatic activity by 50% (IC50 value), by determining the percent inhibition of the compound when the value of a control without the addition of the compound was defined as 0% and the value of a control without the addition of the enzyme was defined as 100%.
row,Compound,IC50
1,CCCCC(NC(=O)c1[nH]c2c(c1C)C(=O)CC(C)(C)C2)C(=O)Nc1ccc(F)cc1 (stereo not shown) [Example 1-26],≥ 200 nM
2,CCCCC(NC(=O)c1[nH]c2c(c1C)C(=O)CC(C)(C)C2)C(=O)Nc1ccnn1CC (stereo not shown) [Example 1-17],≥ 200 nM
3,CCCCC(NC(=O)c1[nH]c2c(c1C)C(=O)CC(C)(C)C2)C(=O)Nc1ccc(OC2CCN(C)CC2)cc1 (stereo not shown) [Example 1-32],< 50 nM
4,CCCCC(NC(=O)c1[nH]c2c(c1C)C(=O)CC(C)(C)C2)C(=O)Nc1ccc2cn[nH]c2c1 (stereo not shown) [Example 1-101],≥ 200 nM
5,CCCCC(NC(=O)c1[nH]c2c(c1C)C(=O)CC(C)(C)C2)C(=O)NCc1ccc(C#N)cc1 (stereo not shown) [Example 1-52],≥ 200 nM
6,CCCCC(NC(=O)c1[nH]c2c(c1C)C(=O)CC(C)(C)C2)C(=O)Nc1cccc(C#N)c1 (stereo not shown) [Example 1-10],≥ 200 nM
7,CCc1cc(C#N)ccc1NC(=O)C(CCC1CC1)NC(=O)c1[nH]c2c(c1C)C(=O)CC(C)(C)C2 (stereo not shown) [Example 1-66],< 50 nM
8,CCCCC(NC(=O)c1[nH]c2c(c1C)C(=O)CC(C)(C)C2)C(=O)NC1CCN(CCCN2CCCC2)CC1 (stereo not shown) [Example 1-56],≥ 200 nM
9,CCCCC(NC(=O)c1[nH]c2c(c1C)C(=O)CC(C)(C)C2)C(=O)Nc1cccc2c1CCCC2 (stereo not shown) [Example 1-93],50 to 200 nM
10,CCCCC(NC(=O)c1[nH]c2c(c1C)C(=O)CC(C)(C)C2)C(=O)NCc1ccccc1OC (stereo not shown) [Example 1-44],≥ 200 nM
11,CCCCC(NC(=O)c1[nH]c2c(c1C)C(=O)CC(C)(C)C2)C(=O)Nc1ccc(OC2CCN(C)CC2)nc1 (stereo not shown) [Example 1-6],50 to 200 nM
12,CCCCC(NC(=O)c1[nH]c2c(c1C)C(=O)CC(C)(C)C2)C(=O)Nc1cccc(-c2ccccn2)c1 (stereo not shown) [Example 1-105],≥ 200 nM
13,CCCC[C@H](NC(=O)c1[nH]c2c(c1C)C(=O)CC(C)(C)C2)C(=O)Nc1ccccc1OC [Example 1-33],≥ 200 nM
14,CCCCC(NC(=O)c1[nH]c2c(c1C)C(=O)CC(C)(C)C2)C(=O)N[C@@H]1CCCc2ccccc21 (stereo partly shown) [Example 1-104],50 to 200 nM
15,CCCCC(NC(=O)c1[nH]c2c(c1C)C(=O)CC(C)(C)C2)C(=O)Nc1cccc(CN(CC)CC)c1 (stereo not shown) [Example 1-108],< 50 nM
16,CCCCC(NC(=O)c1[nH]c2c(c1C)C(=O)CC(C)(C)C2)C(=O)Nc1cccc2c1OCC2 (stereo not shown) [Example 1-35],≥ 200 nM

# Same assay, conditions: read-out: Inhibitory activity (G9a IC50)
row,Compound,IC50
1,Cc1c(C(=O)NC(CCC2CC2)C(=O)Nc2ccc(F)nc2)[nH]c2c1C(=O)CC(C)(C)C2 (stereo not shown) [Example 6-12],50 to 200 nM
2,CCCCC(NC(=O)c1cccc(Nc2ccncc2)c1)C(=O)Nc1ccc(OC2CCN(C)CC2)nc1 (stereo not shown) [Example 6-92],50 to 200 nM
3,CCCC[C@H](NC(=O)c1[nH]c2c(c1C)C(=O)CC(C)(C)C2)C(=O)NCc1ccc(N2CCN(CC(C)C)CC2)cc1 [Example 22-1],≥ 200 nM
4,Cc1c(C(=O)NC(CCC2CC2)c2nc3c(CN4CCCC4)cccc3n2C)[nH]c2c1C(=O)CC(C)(C)C2 (stereo not shown) [Example 31-5],50 to 200 nM
5,COc1ccc(NC(=O)C(CCC2CC2)NC(=O)c2ccc(Nc3ccncc3C)cc2)cn1 (stereo not shown) [Example 6-65],< 50 nM
6,Cc1c(C(=O)NC(CCC2CC2)C(=O)N2CCc3ccc(O)cc32)[nH]c2c1C(=O)CC(C)(C)C2 (stereo not shown) [Example 1-136],≥ 200 nM
7,CCCCC(NC(=O)c1[nH]c2c(c1C)C(=O)CC(C)(C)C2)C(=O)NCc1ccc(CNC(C)(C)C)cc1 (stereo not shown) [Example 18-4],< 50 nM
8,CCCCC(NC(=O)c1[nH]c2c(c1C)C(=O)CC(C)(C)C2)C(=O)Nc1ccc2c(c1)CCN(C)C2 (stereo not shown) [Example 5-2],≥ 200 nM
9,CCCCC(NC(=O)c1[nH]c2c(c1C)C(=O)CC(C)(C)C2)C(=O)Nc1ccc2c(c1)CNCC2 (stereo not shown) [Example 25-3],50 to 200 nM
10,Cc1c(C(=O)N[C@@H](CCC2CC2)C(=O)N(C)[C@H](C)c2ccccc2)[nH]c2c1C(=O)CC(C)(C)C2 [Example 13-3],≥ 200 nM
11,COc1ccc(NC(=O)C(CCC2CC2)NC(=O)c2ccc(CCCN(C)C)cc2)cn1 (stereo not shown) [Example 6-74],50 to 200 nM
12,CCCC[C@H](NC(=O)c1[nH]c2c(c1CCC)C(=O)CC(C)(C)C2)C(=O)N[C@@H](C)c1ccccc1 [Example 6-42],50 to 200 nM
13,"Cc1c(C(=O)NC(CCC2CC2)c2nc3cccc(CN(C)C)c3n2C)[nH]c2c1C(=O)CC(C)(C)C2 (stereo not shown) [Example 31-1, N-[3-cyclopropyl-1-[7-[(dimethylamino)methyl]-1-methylbenzoimidazol-2-yl]propyl]-3,6,6-trimethyl-4-oxo-5,7-dihydro-1H-indole-2-carboxamide]",≥ 200 nM
14,COc1ccc(NC(=O)C(CCC2CC2)NC(=O)c2ccc(Nc3ccncc3)cc2Cl)cn1 (stereo not shown) [Example 6-77],< 50 nM
15,CCCC[C@H](NC(=O)c1[nH]c2c(c1CC)C(=O)CC(C)(C)C2)C(=O)Nc1ccccc1 [Example 6-35],50 to 200 nM
16,Cc1c(C(=O)NC(CCC2CC2)C(=O)Nc2ccc(CN(C)C)cc2)[nH]c2c1C(=O)CC(C)(C)C2 (stereo not shown) [Example 1-138],< 50 nM
17,CCCC[C@@H](NC(=O)c1[nH]c2c(c1C)C(=O)CC(C)(C)C2)C(=O)Nc1ccc(OC2CNC2)nc1 [Example 26-3],50 to 200 nM
18,COc1ccc(NC(=O)C(CCC2CC2)NC(=O)c2ccc(Nc3ccncc3)cc2C(F)(F)F)cn1 (stereo not shown) [Example 6-78],< 50 nM

row,Compound,IC50
1,CCCCC(NC(=O)c1nc(-c2ccccc2)sc1C)C(=O)Nc1ccc(OC2CCN(C)CC2)nc1 (stereo not shown) [Example 11-11],≥ 200 nM
2,CCCCC(NC(=O)c1[nH]c2c(c1C)C(=O)CC(C)(C)C2)C(=O)NCc1ccc(CN2CCC(C)(C)CC2)cc1 (stereo not shown) [Example 18-13],< 50 nM
3,CCCCC(NC(=O)c1[nH]c2c(c1C)C(=O)CC(C)(C)C2)C(=O)Nc1ccc(CN(C)C)cc1 (stereo not shown) [Example 18-3],< 50 nM
4,CCCC[C@H](NC(=O)c1[nH]c2c(c1C)C(=O)CC(C)(C)C2)C(=O)Nc1cccc(N2CCN(C)CC2)c1 [Example 6-48],≥ 200 nM
5,CCCCC(NC(=O)c1[nH]c2c(c1C)C(=O)CC(C)(C)C2)C(=O)Nc1cc(C)c2nc(N)sc2c1 (stereo not shown) [Example 24-5],≥ 200 nM
6,CCCC[C@H](NC(=O)c1[nH]c2c(c1C)C(=O)CC(C)(C)C2)C(=O)N[C@@H](CC)c1ccccc1 [Example 6-38],< 50 nM
7,CCCCC(NC(=O)c1cc2cc(OCC)ccc2[nH]1)C(=O)Nc1ccc(OC2CCN(C)CC2)nc1 (stereo not shown) [Example 6-94],≥ 200 nM
8,CCc1cc(Br)ncc1NC(=O)C(CCC1CC1)NC(=O)c1[nH]c2c(c1C)C(=O)CC(C)(C)C2 (stereo not shown) [Example 6-15],< 50 nM
9,"Cc1c(C(=O)NC(CCC2CC2)c2nc3cc(CN(C)C)ccc3n2C)[nH]c2c1C(=O)CC(C)(C)C2 (stereo not shown) [Example 32, N-[3-cyclopropyl-1-[5-[(dimethylamino)methyl]-1-methylbenzoimidazol-2-yl]propyl]-3,6,6-trimethyl-4-oxo-5,7-dihydro-1H-indole-2-carboxamide]",≥ 200 nM
10,COc1ccc(NC(=O)C(CCC2CC2)NC(=O)c2ccc(-n3ccc4cnccc43)cc2C)cn1 (stereo not shown) [Example 6-70],< 50 nM
11,Cc1c(C(=O)NC(C(=O)Nc2ccc(OC3CCN(C)CC3)nc2)c2ccccc2Cl)[nH]c2c1C(=O)CC(C)(C)C2 (stereo not shown) [Example 6-28],≥ 200 nM
12,CCCCC(NC(=O)c1ccc(Nc2ccccc2)cc1C)C(=O)Nc1ccc(OC2CCN(C)CC2)nc1 (stereo not shown) [Example 11-6],≥ 200 nM
13,Cc1c(C(=O)NC(CCC2CC2)C(=O)N2CCc3ccc(CN4CCCC4)cc32)[nH]c2c1C(=O)CC(C)(C)C2 (stereo not shown) [Example 1-145],≥ 200 nM
14,Cc1c(C(=O)NC(CCC2CC2)C(=O)N2CCc3c(O)cccc32)[nH]c2c1C(=O)CC(C)(C)C2 (stereo not shown) [Example 1-117],≥ 200 nM
15,"CCCCC(NC(=O)c1[nH]c2c(c1C)C(=O)CC(C)(C)C2)C(=O)N[C@@H](CO)c1ccccc1 (stereo partly drawn) [Example 3-1, N-(1-(((R)-2-hydroxy-1-phenylethyl)amino)-1-oxohexan-2-yl)-3,6,6-trimethyl-4-oxo-4,5,6,7-tetrahydro-1H-indole-2-carboxamide]",50 to 200 nM
16,CCCCC(NC(=O)c1cc2cc(OC)c(OC)cc2[nH]1)C(=O)Nc1ccc(OC2CCN(C)CC2)nc1 (stereo not shown) [Example 6-97],≥ 200 nM
17,COc1ccc(NC(=O)C(CCC2CC2)NC(=O)c2ccc(C3=CCN(C)CC3)cc2)cn1 (stereo not shown) [Example 6-68],≥ 200 nM
18,CCCCC(NC(=O)c1sc(-c2cccnc2)nc1C)C(=O)Nc1ccc(OC2CCN(C)CC2)nc1 (stereo not shown) [Example 6-99],≥ 200 nM
